Reference: patent publication US20150335615A1, “CHOLESTEROL-LOWERING COMPOUNDS IN COMBINATION WITH LIPID METABOLISM-ALTERING COMPOUNDS OF NON-ABSORBABLE SUGARS, COMPOUNDS THAT CONVERT NH3 TO NH4+, OR HYDROGEN-GENERATING COMPOUNDS FOR THE TREATMENT OF HIGH CHOLESTEROL AND INFLAMMATION” (priority 2013, published 2015)
Entries after “also recorded” stand apart in the source; their conditions may differ.

How the values were obtained:
LDLR-KO mice [1] = test: Serum lipids and Ox-LDL in LDLR-KO mice on western diet (Example 4); format: in vivo; details: LDLR-KO mice at 1.5 months and 3 months; FIGS. 10A and 10B
Text: (§1) Animals: Homozygous LDL receptor knockout (LDLr−/−; C57BL/6) mice were purchased from the Jackson Laboratory (Bar Harbor, Me.). This genetically manipulated mouse strain is most commonly used for the pre-clinical study of high-fat diet induced hyperlipidemia and atherosclerosis. Nine weeks of age mice were separated into five groups (Groups #1-#5) and fed with normal diet (Group #1; Picolab, 5053) or high fat diet (Group #2-#5; HFD; Harlan Teklad, TD 88137) for 12 weeks. Atorvastatin (Lipitor) was added to the HFD (0.16% w/w) to Group #4 and Group #5. Lactulose (3 g/kg/day, in water solution) was orally administered every 12 hours to Group #3 and Group #5. The LDLR-KO mice were fed for three months with a normal or western diet, with or without lactulose, and with or without atorvastatin. Analysis of serum samples: Lipids, including LDL and HDL, as well as oxidized low density lipoprotein (Ox-LDL) present in serum was measured using an ELISA kit (Cell biolabs).

rats = details: cited from earlier work
LDLR-KO mice [2] = test: Weight increase of LDLR-KO mice on western diet (Example 4); format: in vivo; details: western diet 12 weeks, atorvastatin 0.16% w/w in HFD, lactulose 3 g/kg/day oral, FIG. 9
Text: as §1, with “atorvastatin.” for “atorvastatin. Analysis of serum samples: Lipids, including LDL and HDL, as well as oxidized low density lipoprotein (Ox-LDL) present in serum was measured using an ELISA kit (Cell biolabs).”

LDLR knockout mice [3] = test: Liver histology, fatty liver development in LDLR knockout mice on high fat diet (Example 3); format: in vivo; details: LDLR-KO mice, high fat diet 12 weeks; lactulose 400 mg/day oral gavage; FIG. 7
Procedure: (§2) Low density lipoprotein receptor (LDLR) knockout mice and their wild type (C57BL6/J), were purchased from Jackson Laboratories (Bar Harbor, Me., USA). Male LDLR knockout mice (9-w old male) received control standard diet (Picolab, MO, USA; diet #5053) or high fat diet (Tekland Custom Diet, WI, USA; diet #TD88137). The LDLR mice received high fat diet were further randomly divided into four groups; G1) 20 mg/kg day atorvastatin group, G2) 400 mg/day lactulose group, G3) combination group, and G4) negative control group (no atorvastatin or lactulose). Atorvastatin was supplemented in the diet and lactulose was administered by oral gavage, twice a day. Wild type mice were maintained on the standard diet. All mice were fed with above noted respective diet for 12 weeks and sacrificed for post mortal analyses.
Blood was collected by heart puncture at left ventricular on the sacrificed mice, followed flushing the blood circulation with PBS, and the aorta and liver lobes were removed for laboratory evaluations.
Aortas and liver lobes were frozen in OCT compound (Sakura finetek, Japan).
Cryosections of aortas and liver lobes were stained with hematoxylin and eosin. Atherosclerosis legions were evaluated by Oil-Red 0 staining.

[4] = test system: patients suffering from minimal hepatic encephalopathy (MHE); details: compared to placebo or no intervention; cited from earlier work
[5] = test system: Substance P and nerve growth factor (NGF); test: Pain associated factors (Substance P, NGF) in mice with pregabalin; format: in vivo; details: hydrogen generated by lactulose
LDLR knockout mice [6] = test: Serum lipoproteins (HDL, LDL, Ox-LDL) in LDLR knockout mice on high fat diet (Example 3); format: in vivo
Procedure: as §2, with “analyses. Blood was collected by heart puncture at left ventricular on the sacrificed mice, followed flushing the blood circulation with PBS, and the aorta and liver lobes were removed for laboratory evaluations. Blood was drawn from heart in the absence of anti-coagulant agents, and the serum was prepared. High-density lipoprotein cholesterol and low-density lipoprotein (LDL) cholesterol were determined by a commercial colorimetric assay (Sigma-Aldrich, MO, USA). Oxidative-LDL was measured by ELISA (Uscn Life Science, TX, USA).” for “analyses.”

[7] = H2 amount in mice after oral inulin; format: in vivo; details: oral administration
F. nucleatum = details: FIG. 4
Procedure: Incubate one of the periodontal bacteria for 4 hours with/without hydrogen and measure the hydrogen sulfide concentration.
Culture F. nucleatum (oral bacteria that produce H2S) overnight.
Incubate F. nucleatum in H2 or N2 condition for 4 hours.
Keep supernatant (3 ml) in 15 ml conical tube at 4° C.
Measure the H2S concentration in the conical tube (N=5, 1:10 dilution).

With `OC[C@H]1O[C@@H](O[C@@H]2[C@@H](CO)OC(O)(CO)[C@H]2O)[C@H](O)[C@@H](O)[C@H]1O` (mixture of isomers) [lactulose] as the molecule, how does the “amount of Ox-LDL in serum” value (LDLR-KO mice [1]) read?
The value was “able to suppress”.

What about the “incidence of MHE” value (rats) of the same molecule?
Its value is “decreased”.

What about the “latency of BAEP” value (rats) of the same molecule?
The value was “normalized”.

What about the level of hyper-endotoxemia (rats) of the same molecule?
The level of hyper-endotoxemia was “significantly lowered”.

What about the level of hyperammonemia (rats) of the same molecule?
Its level of hyperammonemia is “significantly lowered”.

What about the weight increase (LDLR-KO mice [2]) of the same molecule?
Its weight increase is “moderate weight increase; also recorded: suppress weight gain”.

What about the fatty liver development (LDLR knockout mice [3]) of the same molecule?
The fatty liver development was “remarkable preventative effects”.

And the blood ammonia levels [4]?
Its blood ammonia levels is “reduced”.

What about the “health-related quality of life” value [4] of the same molecule?
Its value is “improved”.

What about the “progression to overt hepatic encephalopathy” value [4] of the same molecule?
Its value is “prevented”.

What about the “risk of no improvement in neuropsychological tests” value [4] of the same molecule?
The value was “reduced”.

And the “pregabalin-mediated suppression of pain associated factors (Substance P and nerve growth factor (NGF))” value [5]?
Its value is “additive effect”.

And the “amount of HDL (good cholesterol)” value (LDLR knockout mice [6]; LDLR-KO mice, high fat diet 12 weeks, atorvastatin 20 mg/kg day in diet, lactulose 400 mg/day oral gavage, FIG. 8A)?
Its value is “didn't change”.

And the “LDL (bad cholesterol) levels” value (LDLR knockout mice [6]; LDLR-KO mice, high fat diet 12 weeks, atorvastatin 20 mg/kg day in diet, lactulose 400 mg/day oral gavage, FIG. 8B)?
Its value is “no effects; also recorded: did not change”.

And the “blood Ox-LDL caused by a fat diet” value (LDLR knockout mice [6]; lactulose by itself, previously found)?
Its value is “can suppress”.

With Inulin as the molecule, how does the “amount of H2” value [7] read?
Its value is “elevates”.

Which “production of dimethyl sulfide (DMS)” value (F. nucleatum; F. nucleatum cultured with H2) does the source give for hydrogen here?
The value was “elevated production”.

What about the “Hydrogen sulfide (H2S) concentration” value (F. nucleatum; F. nucleatum incubated in H2 or N2 condition for 4 hours) of the same molecule?
Its value is “tends to be reduced”.
